What was measured:
[1] = target: HA-GST-Rheb (GTP-γ-S loaded) activating mTORC1 (Homo sapiens (Human), UniProt Q15382); experiment: Rheb-dependent in vitro kinase assay (Rheb-IVK; LanthaScreen or Western readout); type: biochemical; conditions: Rheb-dependent in vitro kinase assay; read-out: IVK IC50
Rheb = Rheb (Homo sapiens (Human), UniProt Q15382); experiment: Affinity Selection Mass Spectrometry (ASMS); type: binding; conditions: affinity (R3/R0) in Affinity Selection Mass Spectrometry assay
In short: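 Affinity selection used 2 μM compound with 60 μM Rheb and 180 μM GDP for 30 min at room temperature. After 10 kDa ultrafiltration washes, protein was denatured in MeCN and bound compound quantified by C18 UPLC with Q-TOF MS, against a no-protein control.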

Chain of Rheb (Q15382 1-169 limits assumed): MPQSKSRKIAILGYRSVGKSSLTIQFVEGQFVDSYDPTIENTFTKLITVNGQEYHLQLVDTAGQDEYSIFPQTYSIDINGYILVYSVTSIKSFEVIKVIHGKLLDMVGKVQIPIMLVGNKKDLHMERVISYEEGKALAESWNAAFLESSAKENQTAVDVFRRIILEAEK
Chain of HA-GST-Rheb (GTP-γ-S loaded) activating mTORC1 (Q15382 1-181): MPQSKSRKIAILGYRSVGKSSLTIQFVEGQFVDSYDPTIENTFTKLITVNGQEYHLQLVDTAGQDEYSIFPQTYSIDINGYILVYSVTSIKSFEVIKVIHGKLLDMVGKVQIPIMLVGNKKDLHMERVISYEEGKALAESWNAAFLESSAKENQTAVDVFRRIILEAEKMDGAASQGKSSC

Row | IC50 [1] | Structure (SMILES) | ASMS (R3/R0) (Rheb)
1 | > 100 µM | Cn1ccc2c(OC3CCNCC3)cccc21 [I-295] | C (an affinity (R3/R0)<20%)
2 | 100 to 300 µM | c1ccc(Oc2cccc3[nH]ccc23)cc1 [I-296, 4-phenoxy-1H-indole] | C (an affinity (R3/R0)<20%)
3 | > 100 µM | Cn1ccc2c(Nc3ccccc3)cccc21 [I-299] | C (an affinity (R3/R0)<20%)
4 | 10 to 100 µM | OCc1nc2cc(OCc3ccc(Oc4ccccc4)cc3)c(Cl)c(Cl)c2[nH]1 [I-320, [6,7-dichloro-5-[(4-phenoxyphenyl)methoxy]-1H-benzimidazol-2-yl]methanol] | B (an affinity (R3/R0) between 100% and 20%)
5 | > 100 µM | CN1CCN(C(=O)c2cc3nc(-c4ccnc5[nH]ccc45)[nH]c3c(Cl)c2Cl)CC1 [I-321] | C (an affinity (R3/R0)<20%)
6 | > 100 µM | O=C(O)Cn1c(-c2ccnc3[nH]ccc23)nc2c(Sc3ccc(Cl)cc3)c(Cl)ccc21 [I-322] | C (an affinity (R3/R0)<20%)
7 | > 3 µM | O[C@@H]1CCC[C@@H](COc2c(Cl)c(Cl)cc3[nH]c(-c4ccncc4)nc23)C1 [I-323] | B (an affinity (R3/R0) between 100% and 20%)
8 | > 3 µM | O[C@@H]1CCC[C@H](COc2c(Cl)c(Cl)cc3[nH]c(-c4ccncc4)nc23)C1 [I-324, (1R,3S)-3-((5,6-dichloro-2-(pyridin-4-yl)-1H-benzo[d]imidazol-4-yloxy)methyl)cyclohexanol] | B (an affinity (R3/R0) between 100% and 20%)
9 | 10 to 100 µM | OCC(O)c1nc2c(OCC3CCCCC3)c(Cl)c(Cl)cc2[nH]1 (stereo not drawn) [I-325, 1-(5,6-dichloro-4-(cyclohexylmethoxy)-1H-benzo[d]imidazol-2-yl)ethane-1,2-diol] | B (an affinity (R3/R0) between 100% and 20%)
10 | 10 to 100 µM | Clc1ccc(Sc2cc(Cl)cc3[nH]c(-c4ccnc5[nH]ccc45)nc23)cc1 [I-326, 6-chloro-4-(4-chlorophenylthio)-2-(1H-pyrrolo[2,3-b]pyridin-4-yl)-1H-benzo[d]imidazole] | B (an affinity (R3/R0) between 100% and 20%)
11 | > 100 µM | O=C(O)c1cc2nc(-c3ccnc4[nH]ccc34)[nH]c2c(Cl)c1Cl [I-327] | C (an affinity (R3/R0)<20%)
12 | > 100 µM | COc1ccc(COc2cc3nc(CO)[nH]c3c(Cl)c2Cl)cc1 [I-328] | B (an affinity (R3/R0) between 100% and 20%)
13 | 10 to 100 µM | O=[N+]([O-])c1ccc(COc2cc3nc(CO)[nH]c3c(Cl)c2Cl)cc1 [I-329, (6,7-dichloro-5-(4-nitrobenzyloxy)-1H-benzo[d]imidazol-2-yl)methanol] | A (an affinity (R3/R0)>100%)
14 | 10 to 100 µM | O=C(O)c1ccc(CCn2c(-c3ccnc4[nH]ccc34)nc3cc(Cl)c(Cl)cc32)cc1 [I-331, 4-(2-(5,6-dichloro-2-(1H-pyrrolo[2,3-b]pyridin-4-yl)-1H-benzo[d]imidazol-1-yl)ethyl)benzoic acid] | B (an affinity (R3/R0) between 100% and 20%)
15 | 10 to 100 µM | O=C(O)c1nc2c(OCc3ccc(Cl)cc3)c(Cl)c(Cl)cc2[nH]1 [I-333] | A (an affinity (R3/R0)>100%)
16 | 10 to 100 µM | O=C(O)Cn1c(-c2c[nH]c3ncccc23)nc2cc(Cl)c(Cl)cc21 [I-334, 2-(5,6-dichloro-2-(1H-pyrrolo[2,3-b]pyridin-3-yl)-1H-benzo[d]imidazol-1-yl)acetic acid] | B (an affinity (R3/R0) between 100% and 20%)

Row | IC50 [1] | Structure (SMILES) | ASMS (R3/R0) (Rheb)
17 | 100 to 300 µM | O=C(O)c1ccc(CCn2c(-c3c[nH]c4ncccc34)nc3cc(Cl)c(Cl)cc32)cc1 [I-335, 4-(2-(5,6-dichloro-2-(1H-pyrrolo[2,3-b]pyridin-3-yl)-1H-benzo[d]imidazol-1-yl)ethyl)benzoic acid] | B (an affinity (R3/R0) between 100% and 20%)
18 | > 100 µM | CN1CCC[C@H]1CNC(=O)c1ccc(-c2nc3cc(Cl)c(Cl)cc3[nH]2)cc1 [I-336] | B (an affinity (R3/R0) between 100% and 20%)
19 | > 3 µM | CN1CCC(CNC(=O)c2nc3cc(OCc4ccc(Cl)cc4)c(Cl)c(Cl)c3[nH]2)CC1 [I-337, 6,7-dichloro-5-(4-chlorobenzyloxy)-N-((1-methylpiperidin-4-yl)methyl)-1H-benzo[d]imidazole-2-carboxamide] | B (an affinity (R3/R0) between 100% and 20%)
20 | > 3 µM | O=C(O)c1nc2cc(OCc3ccc(Cl)cc3)c(Cl)c(Cl)c2[nH]1 [I-338, 6,7-dichloro-5-(4-chlorobenzyloxy)-1H-benzo[d]imidazole-2-carboxylic acid] | B (an affinity (R3/R0) between 100% and 20%)
21 | > 3 µM | Clc1ccc(Sc2cc(Cl)cc3[nH]c(-c4c[nH]c5ncccc45)nc23)cc1 [I-339, 6-chloro-4-(4-chlorophenylthio)-2-(1H-pyrrolo[2,3-b]pyridin-3-yl)-1H-benzo[d]imidazole] | B (an affinity (R3/R0) between 100% and 20%)
22 | > 100 µM | Cc1nc2c(OCc3ccc(Cl)cc3)c(Cl)c(Cl)cc2[nH]1 [I-340] | B (an affinity (R3/R0) between 100% and 20%)
23 | > 100 µM | CN1CCC[C@@H]1CNC(=O)c1ccc(-c2nc3cc(Cl)c(Cl)cc3[nH]2)cc1 [I-341] | B (an affinity (R3/R0) between 100% and 20%)
24 | 10 to 100 µM | O=C(O)c1nc2c(OCC3CCCCC3)c(Cl)c(Cl)cc2[nH]1 [I-342, 5,6-dichloro-4-(cyclohexylmethoxy)-1H-benzo[d]imidazole-2-carboxylic acid] | B (an affinity (R3/R0) between 100% and 20%)
25 | 10 to 100 µM | O=C(O)c1nc2cc(OCc3ccc(Cl)cc3)c(Cl)cc2[nH]1 [I-343, 6-chloro-5-(4-chlorobenzyloxy)-1H-benzo[d]imidazole-2-carboxylic acid] | A (an affinity (R3/R0)>100%)
26 | > 100 µM | Clc1cc2nc(-c3ccc(-c4nn[nH]n4)cc3)[nH]c2cc1Cl [I-344] | A (an affinity (R3/R0)>100%)
27 | > 100 µM | C=Cc1nc2c(OCC3CCCCC3)c(Cl)c(Cl)cc2[nH]1 [I-345] | B (an affinity (R3/R0) between 100% and 20%)
28 | > 100 µM | Clc1cc2nc(-c3ccnc(N4CCNCC4)c3)[nH]c2cc1Cl [I-346] | A (an affinity (R3/R0)>100%)
29 | > 100 µM | CC(C)(C)OC(=O)N1CCN(c2cc(-c3nc4cc(Cl)c(Cl)cc4[nH]3)ccn2)CC1 [I-347] | B (an affinity (R3/R0) between 100% and 20%)
30 | > 100 µM | Clc1cc2[nH]c(-c3ccncc3)nc2c(OCC2CCCCC2)c1Cl [I-348] | B (an affinity (R3/R0) between 100% and 20%)
31 | > 100 µM | CN1CCN(C(=O)c2ccc(-c3nc4cc(Cl)c(Cl)cc4[nH]3)cc2)CC1 [I-349] | B (an affinity (R3/R0) between 100% and 20%)
32 | > 100 µM | CC(C)(C)OC(=O)NCc1nc2cc(OCc3ccc(Cl)cc3)c(Cl)c(Cl)c2[nH]1 [I-350] | B (an affinity (R3/R0) between 100% and 20%)

Row | Structure (SMILES) | IC50 [1] | ASMS (R3/R0) (Rheb)
33 | CN1CCN(C(=O)Cc2nc3cc(Cl)c(OCc4ccc(Cl)cc4)cc3[nH]2)CC1 [I-332, 2-[5-chloro-6-[(4-chlorophenyl)methoxy]-1H-benzimidazol-2-yl]-1-(4-methylpiperazin-1-yl)ethanone] | 10 to 100 µM | A (an affinity (R3/R0)>100%)

Reference: US11339144B2 (Navitor Pharmaceuticals, Inc., priority 2017, dated 2022)
